Measurements: ChEMBL document CHEMBL1201862, “PubChem BioAssay data set” (2004)
Each block holds one compound with its values, some of them ahead of it. Calls of active or inactive are those of the source.

Legend:
Beta Lactamase = Beta Lactamase (Pseudomonas aeruginosa, UniProt Q932Y6); test: BLA reporter interference, concentration series – BLA reporter cells, FRET fluorescence, artefact control for NOD2-RIPK2 interaction inhibitor project, dose response (AID 651552); format: functional, cell-based
Chain of Beta Lactamase (Q932Y6 whole entry): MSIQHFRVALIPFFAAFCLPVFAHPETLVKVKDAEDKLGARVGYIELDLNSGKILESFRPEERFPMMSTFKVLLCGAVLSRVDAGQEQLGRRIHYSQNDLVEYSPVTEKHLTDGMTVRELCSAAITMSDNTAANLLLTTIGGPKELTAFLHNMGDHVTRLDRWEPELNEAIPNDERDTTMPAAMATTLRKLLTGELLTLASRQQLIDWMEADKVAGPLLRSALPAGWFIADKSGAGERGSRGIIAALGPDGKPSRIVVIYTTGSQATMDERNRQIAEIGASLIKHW

[1] = molecular target: C-C chemokine receptor type 6 (Homo sapiens, UniProt P51684); test: antagonism of CCR6 beta-arrestin recruitment – cell-based, luminescent beta-arrestin readout, dose response (AID 504728); format: functional
Chain of C-C chemokine receptor type 6 (P51684 whole entry, the tested form may be a part): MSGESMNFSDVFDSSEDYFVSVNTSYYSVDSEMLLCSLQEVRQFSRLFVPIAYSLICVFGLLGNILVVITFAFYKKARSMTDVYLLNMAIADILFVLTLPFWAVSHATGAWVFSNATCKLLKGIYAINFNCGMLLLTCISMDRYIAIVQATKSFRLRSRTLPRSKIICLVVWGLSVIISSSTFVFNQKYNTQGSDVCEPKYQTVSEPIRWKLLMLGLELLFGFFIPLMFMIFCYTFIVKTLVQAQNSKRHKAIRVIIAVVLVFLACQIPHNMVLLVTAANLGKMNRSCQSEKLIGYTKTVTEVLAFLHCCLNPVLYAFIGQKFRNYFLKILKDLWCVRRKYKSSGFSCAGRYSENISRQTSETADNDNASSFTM

[2] = Fluorescence-based cell-based high throughput dose response assay for inhibitors of the interaction of nucleotide-binding oligomerization domain containing 2 (NOD2) and the receptor-interacting serine-threonine kinase 2 (RIPK2).; format: functional; settings: Homo sapiens
[3] = viability of HCT116 lacking mutant beta-catenin – cell-based, human colon tumor, dose response (AID 1045); format: functional;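 note: HCT116 colon tumor cells with beta catenin knocked out; cells exposed to compound for 60 hours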
INS1 = test: INS-1E survival protection against cytokine death – cell-based, luminescence, retest, dose response (AID 449756); format: functional; settings: Rattus norvegicus;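 note: cell death triggered by IL-1 beta plus TNF-alpha plus IFN-gamma mixture; protective hits raise ATP signal compared with cytokine alone wells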
BJ [4] = test: BJ-TERT fibroblast viability loss – cell-based, RAS-independent, luminescence, dose response (AID 1933); format: functional; settings: Homo sapiens
[5] = molecular target: T1, Rac GTPase-activating protein 1 (Homo sapiens, UniProt Q9H0H5); test: blockers of MgcRacGAP-driven Rac1 GTP hydrolysis – biochemical, ADP Hunter fluorescence, primary and confirmatory, confirmation (AID 624330); format: functional
T1 sequence (Q9H0H5 whole entry): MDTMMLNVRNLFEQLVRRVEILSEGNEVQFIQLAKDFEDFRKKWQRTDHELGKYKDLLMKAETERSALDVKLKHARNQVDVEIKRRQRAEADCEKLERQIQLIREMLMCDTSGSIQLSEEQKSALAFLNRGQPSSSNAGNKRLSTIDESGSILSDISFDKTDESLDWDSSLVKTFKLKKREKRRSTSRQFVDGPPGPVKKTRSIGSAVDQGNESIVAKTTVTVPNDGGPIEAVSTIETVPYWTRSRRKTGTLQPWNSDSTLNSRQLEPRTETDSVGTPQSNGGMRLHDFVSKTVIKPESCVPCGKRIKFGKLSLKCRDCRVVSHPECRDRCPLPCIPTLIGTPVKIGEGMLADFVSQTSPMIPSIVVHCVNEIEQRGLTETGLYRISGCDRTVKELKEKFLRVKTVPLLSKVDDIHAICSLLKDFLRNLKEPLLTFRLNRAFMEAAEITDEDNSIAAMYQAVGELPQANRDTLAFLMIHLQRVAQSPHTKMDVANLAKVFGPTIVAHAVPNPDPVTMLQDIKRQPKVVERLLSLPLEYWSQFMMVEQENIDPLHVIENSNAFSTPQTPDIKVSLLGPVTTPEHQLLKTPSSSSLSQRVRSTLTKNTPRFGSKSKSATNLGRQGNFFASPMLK

BJ [6] = test: cells; format: functional, cell-based; settings: Homo sapiens
BJ [7] = test: growth inhibition of engineered Ras-driven BJ cells – cell-based, alamar blue fluorescence, cherrypicked samples, dose response (AID 2631); format: functional; settings: Homo sapiens;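 note: confirmatory dose-response assay in RAS-dependent BJ fibroblasts engineered with TERT, LT and ST, with cytotoxicity read by fluorescence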
[8] = viability loss in HeLa cells – cytotoxicity control for MgcRacGAP inhibitor project, dose response (AID 624300); format: functional
[9] = DRD fibroblast viability loss – cell-based, non-viral oncogenic, luminescence, dose response (AID 1934); format: functional; settings: Homo sapiens
[10] = viability of PTEN-deleted HCT116 cells – cell-based, HCT116 PTEN knockout, dose response (AID 1047); format: functional;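 note: HCT116 colon tumor cells with PTEN knocked out; cells exposed to compound for 60 hours before readout; potency for loss of cell viability measured by luminescence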
[11] = molecular target: T2, G-protein coupled receptor 55 (Homo sapiens, UniProt Q9Y2T6); test: selective activators of receptor GPR55 – imaging, U2OS cells, beta-arrestin-GFP redistribution, primary screen (AID 1961); format: functional
T2 sequence (Q9Y2T6 whole entry): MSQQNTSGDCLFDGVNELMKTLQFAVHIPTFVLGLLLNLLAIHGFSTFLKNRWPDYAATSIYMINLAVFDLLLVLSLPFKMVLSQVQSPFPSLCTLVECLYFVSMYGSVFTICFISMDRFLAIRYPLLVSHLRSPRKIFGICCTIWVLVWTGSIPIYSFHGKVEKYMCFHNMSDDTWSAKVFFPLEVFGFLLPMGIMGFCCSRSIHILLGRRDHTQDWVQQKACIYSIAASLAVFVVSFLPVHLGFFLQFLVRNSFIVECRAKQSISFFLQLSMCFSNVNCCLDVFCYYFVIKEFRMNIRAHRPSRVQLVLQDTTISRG

Beta-galactosidase = Beta-galactosidase (Escherichia coli, UniProt Q8VNN2); test: detection-enzyme interference by beta-gal modulators – biochemical, E. coli enzyme, set 3, artefact control for CCR6 antagonist project, dose response (AID 504712); format: functional
Chain of Beta-galactosidase (Q8VNN2 whole entry, the tested form may be a part): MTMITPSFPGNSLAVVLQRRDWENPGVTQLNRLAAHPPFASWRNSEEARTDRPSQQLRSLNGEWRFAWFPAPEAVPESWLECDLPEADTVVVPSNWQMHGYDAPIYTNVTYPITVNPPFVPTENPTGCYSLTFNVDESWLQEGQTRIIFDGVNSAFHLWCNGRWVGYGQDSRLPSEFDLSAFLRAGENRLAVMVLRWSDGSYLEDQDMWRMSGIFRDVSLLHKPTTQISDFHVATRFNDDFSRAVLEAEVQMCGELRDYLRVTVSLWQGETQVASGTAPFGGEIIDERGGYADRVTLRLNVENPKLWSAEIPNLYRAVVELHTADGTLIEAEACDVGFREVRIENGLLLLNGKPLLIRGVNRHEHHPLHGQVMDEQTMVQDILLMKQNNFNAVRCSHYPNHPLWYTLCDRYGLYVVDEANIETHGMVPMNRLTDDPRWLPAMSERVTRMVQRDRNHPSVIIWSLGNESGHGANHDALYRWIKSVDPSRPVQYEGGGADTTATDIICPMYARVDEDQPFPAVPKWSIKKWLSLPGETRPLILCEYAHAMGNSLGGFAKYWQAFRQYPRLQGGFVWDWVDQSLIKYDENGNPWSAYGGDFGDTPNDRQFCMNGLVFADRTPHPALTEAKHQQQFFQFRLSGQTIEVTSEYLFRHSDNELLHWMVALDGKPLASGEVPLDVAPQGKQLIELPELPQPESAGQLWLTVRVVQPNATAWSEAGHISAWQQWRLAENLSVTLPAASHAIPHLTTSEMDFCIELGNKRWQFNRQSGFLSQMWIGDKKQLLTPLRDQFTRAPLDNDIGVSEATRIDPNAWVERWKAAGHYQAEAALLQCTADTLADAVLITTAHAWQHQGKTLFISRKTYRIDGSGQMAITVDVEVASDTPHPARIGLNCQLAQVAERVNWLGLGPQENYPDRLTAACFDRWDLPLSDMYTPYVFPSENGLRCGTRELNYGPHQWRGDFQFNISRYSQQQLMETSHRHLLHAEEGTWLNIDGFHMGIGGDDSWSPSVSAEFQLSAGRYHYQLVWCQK

[12] = molecular target: T3, Nucleotide-binding oligomerization domain-containing protein 1 (Homo sapiens, UniProt Q9Y239); test: blockers of NOD1 pathway activity – revised, SAR follow-up (AID 2333); format: functional
T3 sequence (Q9Y239 whole entry): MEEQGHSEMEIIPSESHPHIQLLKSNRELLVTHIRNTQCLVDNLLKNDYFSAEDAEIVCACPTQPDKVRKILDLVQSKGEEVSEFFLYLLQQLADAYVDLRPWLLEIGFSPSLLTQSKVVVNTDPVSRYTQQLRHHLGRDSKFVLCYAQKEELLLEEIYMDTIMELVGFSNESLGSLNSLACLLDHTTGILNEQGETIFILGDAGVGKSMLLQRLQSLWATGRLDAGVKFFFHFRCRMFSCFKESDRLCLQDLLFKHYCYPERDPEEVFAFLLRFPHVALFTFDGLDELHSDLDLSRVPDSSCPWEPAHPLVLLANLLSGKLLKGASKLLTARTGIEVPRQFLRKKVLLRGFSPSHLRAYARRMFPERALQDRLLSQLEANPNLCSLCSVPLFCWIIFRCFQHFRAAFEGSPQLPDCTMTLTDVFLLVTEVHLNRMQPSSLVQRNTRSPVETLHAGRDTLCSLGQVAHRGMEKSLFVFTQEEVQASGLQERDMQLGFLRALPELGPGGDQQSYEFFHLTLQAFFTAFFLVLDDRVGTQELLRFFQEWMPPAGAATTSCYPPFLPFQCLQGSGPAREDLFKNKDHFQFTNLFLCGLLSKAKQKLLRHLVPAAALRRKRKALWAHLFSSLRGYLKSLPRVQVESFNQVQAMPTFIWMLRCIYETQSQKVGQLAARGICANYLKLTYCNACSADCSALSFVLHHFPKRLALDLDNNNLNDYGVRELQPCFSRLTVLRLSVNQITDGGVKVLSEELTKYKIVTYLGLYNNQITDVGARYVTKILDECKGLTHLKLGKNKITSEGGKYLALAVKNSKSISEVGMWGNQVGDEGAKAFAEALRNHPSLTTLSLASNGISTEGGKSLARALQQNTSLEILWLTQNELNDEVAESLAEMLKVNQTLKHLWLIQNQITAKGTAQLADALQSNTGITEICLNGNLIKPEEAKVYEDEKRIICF

HEK293 [13] = test: cells; settings: Homo sapiens
Tumor necrosis factor = Tumor necrosis factor (Homo sapiens, UniProt P01375); test: analog potency on TNFa NF-kB signaling – cell-based, revised, SAR follow-up (AID 2337); format: functional
Chain of Tumor necrosis factor (P01375 whole entry): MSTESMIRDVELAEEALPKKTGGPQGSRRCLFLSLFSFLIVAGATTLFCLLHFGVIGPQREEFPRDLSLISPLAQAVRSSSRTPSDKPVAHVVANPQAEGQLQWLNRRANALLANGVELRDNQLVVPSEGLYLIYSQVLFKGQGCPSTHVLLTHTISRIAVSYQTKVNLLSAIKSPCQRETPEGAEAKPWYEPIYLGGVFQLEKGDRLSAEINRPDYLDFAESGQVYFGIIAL

HEK293 [14] = test: HEK293T cell viability loss, resazurin readout – resazurin fluorescence, cytotoxicity control for NF-kB activator project, SAR follow-up (AID 493251); format: functional, cell-based; settings: Homo sapiens
[15] = molecular target: T4, Mannose-6-phosphate isomerase (Homo sapiens, UniProt P34949); test: phosphomannose isomerase inhibition – biochemical, fluorescence intensity, confirmation (AID 1535)
T4 sequence (P34949 whole entry): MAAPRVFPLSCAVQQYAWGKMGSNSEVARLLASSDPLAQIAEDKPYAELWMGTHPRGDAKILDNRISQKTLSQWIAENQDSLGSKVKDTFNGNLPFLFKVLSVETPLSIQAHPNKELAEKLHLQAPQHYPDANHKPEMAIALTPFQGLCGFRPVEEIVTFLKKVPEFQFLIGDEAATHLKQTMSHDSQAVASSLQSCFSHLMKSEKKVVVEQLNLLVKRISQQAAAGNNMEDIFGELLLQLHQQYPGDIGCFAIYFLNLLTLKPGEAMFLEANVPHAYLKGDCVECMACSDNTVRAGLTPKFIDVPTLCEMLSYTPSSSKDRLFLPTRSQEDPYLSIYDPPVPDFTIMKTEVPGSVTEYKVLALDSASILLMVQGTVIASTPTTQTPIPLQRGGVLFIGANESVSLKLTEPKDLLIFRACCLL

[16] = molecular target: T2, G-protein coupled receptor 55; test: blockers of GPR55 signalling, imaged – imaging, image-based, counter-screen for GPR35 antagonist project, SAR follow-up (AID 2397); format: functional
Trypsin = Trypsin (Sus scrofa, UniProt P00761); test: trypsin protease activity blockade – biochemical, quenched peptide fluorescence, cherry-pick, selectivity assay for Rce1 protease inhibitor project, dose response (AID 488789)
Chain of Trypsin (P00761 whole entry): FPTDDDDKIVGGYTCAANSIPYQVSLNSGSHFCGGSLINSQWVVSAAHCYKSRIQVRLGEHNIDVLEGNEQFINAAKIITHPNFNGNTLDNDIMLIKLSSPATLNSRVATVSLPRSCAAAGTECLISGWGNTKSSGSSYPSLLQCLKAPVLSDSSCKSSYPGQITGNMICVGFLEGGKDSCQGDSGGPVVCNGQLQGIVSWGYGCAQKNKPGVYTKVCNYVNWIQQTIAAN

CAAX prenyl protease 2 [17] = molecular target: CAAX prenyl protease 2 (Homo sapiens, UniProt Q9Y256); test: inhibition of Ras-converting CAAX protease Rce1 – biochemical, yeast membranes, quenched-peptide fluorescence, cherry-pick, dose response (AID 588849)
Chain of CAAX prenyl protease 2 (Homo sapiens, UniProt Q9Y256) (Q9Y256 whole entry, the tested form may be a part): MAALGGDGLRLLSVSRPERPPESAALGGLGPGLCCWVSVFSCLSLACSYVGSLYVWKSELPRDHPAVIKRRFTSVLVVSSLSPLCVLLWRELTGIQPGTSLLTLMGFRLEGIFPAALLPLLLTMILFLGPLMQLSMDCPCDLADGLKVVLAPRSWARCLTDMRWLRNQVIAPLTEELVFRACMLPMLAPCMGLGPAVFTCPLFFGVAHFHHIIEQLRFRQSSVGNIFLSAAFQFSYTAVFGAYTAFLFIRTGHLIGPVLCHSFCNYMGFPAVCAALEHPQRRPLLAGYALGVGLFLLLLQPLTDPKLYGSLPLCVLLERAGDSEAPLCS

[18] = molecular target: T5, Polyadenylate-binding protein 1 (Homo sapiens, UniProt P11940); test: MLLE domain peptide-binding blockers, IC50 – biochemical, fluorescence polarization, FITC-PAM2 peptide, dose response (AID 602259); format: functional; settings: read-out: IC50_Mean
T5 sequence (P11940 whole entry, the tested form may be a part): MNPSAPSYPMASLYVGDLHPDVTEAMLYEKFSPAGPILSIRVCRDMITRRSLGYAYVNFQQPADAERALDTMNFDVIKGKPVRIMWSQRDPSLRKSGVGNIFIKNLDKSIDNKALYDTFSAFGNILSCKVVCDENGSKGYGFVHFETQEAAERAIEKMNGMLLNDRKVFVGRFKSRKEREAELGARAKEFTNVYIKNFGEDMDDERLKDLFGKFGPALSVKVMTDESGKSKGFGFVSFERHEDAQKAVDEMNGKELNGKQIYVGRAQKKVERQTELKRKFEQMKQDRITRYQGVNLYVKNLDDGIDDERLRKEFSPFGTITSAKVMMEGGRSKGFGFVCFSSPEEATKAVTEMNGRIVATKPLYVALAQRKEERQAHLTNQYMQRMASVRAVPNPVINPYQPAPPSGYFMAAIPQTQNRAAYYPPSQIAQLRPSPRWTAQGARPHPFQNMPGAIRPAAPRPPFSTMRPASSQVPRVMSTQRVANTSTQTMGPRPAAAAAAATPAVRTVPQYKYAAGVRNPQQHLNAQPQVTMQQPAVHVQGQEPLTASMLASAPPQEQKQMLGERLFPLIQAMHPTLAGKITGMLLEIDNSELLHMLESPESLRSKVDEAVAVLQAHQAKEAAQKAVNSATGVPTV

CAAX prenyl protease 2 [19] = molecular target: T6, CAAX prenyl protease 2 (Saccharomyces cerevisiae S288c, UniProt Q03530); format: biochemical
T6 sequence (Q03530 whole entry): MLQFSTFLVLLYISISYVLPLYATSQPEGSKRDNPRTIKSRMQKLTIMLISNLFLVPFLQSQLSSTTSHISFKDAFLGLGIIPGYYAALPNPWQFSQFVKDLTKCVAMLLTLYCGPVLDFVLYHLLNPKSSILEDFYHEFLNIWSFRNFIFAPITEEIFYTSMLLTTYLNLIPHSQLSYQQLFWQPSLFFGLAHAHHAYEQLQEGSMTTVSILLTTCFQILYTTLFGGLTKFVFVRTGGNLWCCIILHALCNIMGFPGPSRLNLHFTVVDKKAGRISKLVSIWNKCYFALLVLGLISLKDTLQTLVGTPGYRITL

[20] = molecular target: T5, Polyadenylate-binding protein 1; test: MLLE binding blockers, Cy5 peptide tracer – biochemical, fluorescence polarization, Cy5-PAM2 peptide, secondary, miRNA deadenylation inhibitor project, dose response (AID 602260); format: functional; settings: read-out: IC50_Mean
[21] = molecular target: Beta-2 adrenergic receptor (Homo sapiens, UniProt P07550); test: ADRB2 activation measured by internalization – cell-based, FAP fluorogen, flow cytometry, cherry pick 1, dose response (AID 588763); format: functional
Chain of Beta-2 adrenergic receptor (P07550 whole entry): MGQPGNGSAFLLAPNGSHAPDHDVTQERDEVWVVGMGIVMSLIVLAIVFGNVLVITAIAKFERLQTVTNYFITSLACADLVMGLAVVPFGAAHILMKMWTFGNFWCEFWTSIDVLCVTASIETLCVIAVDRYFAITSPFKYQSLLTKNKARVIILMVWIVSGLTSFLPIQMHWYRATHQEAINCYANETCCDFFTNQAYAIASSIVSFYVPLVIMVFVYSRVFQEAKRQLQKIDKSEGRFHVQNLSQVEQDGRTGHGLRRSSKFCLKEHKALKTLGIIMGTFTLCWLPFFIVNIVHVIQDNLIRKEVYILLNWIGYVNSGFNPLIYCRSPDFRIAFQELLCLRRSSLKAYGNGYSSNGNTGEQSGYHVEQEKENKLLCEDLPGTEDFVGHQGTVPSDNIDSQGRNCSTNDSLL

Structure (SMILES): COC(=O)c1ccc2c(c1)C(C)(C)C(/C=C/c1ccc(OC)c(OC)c1OC)=[N+]2C
IC50 (Beta Lactamase): 39.1 µM (inactive)
IC50 [1]: 21.4 µM (inactive)
IC50 [2]: 1.93 µM (active)
EC50 [3]: 3.84 µM (active)
AC50 (INS1): 2.09 µM (active)
EC50 (BJ [4]): 3.9 µM (inconclusive)
IC50 [5]: 25.7 µM (active)
EC50 (BJ [6]): 14.4 µM (active)
EC50 (BJ [7]): 1.3 µM (inconclusive)
CC50 [8]: 60.4 µM (active)
EC50 [9]: 3.71 µM (active)
EC50 [10]: 5.04 µM (active)
EC50 [11]: 1.51 µM (active)
IC50 (Beta-galactosidase): > 66.6 µM (inactive)

Structure (SMILES): CCc1cc(C(=O)NC2CCCc3c2cnn3-c2ccc(F)cc2F)no1 (stereo not given)
IC50 [12]: 10.4 µM (active)
IC50 (HEK293 [13]): > 20 µM (inactive)
IC50 (Tumor necrosis factor): > 20 µM (inactive)

Structure (SMILES): O=C(O)CCc1nc(-c2ccccc2)no1
IC50 (HEK293 [14]): > 80 µM (inactive)

Structure (SMILES): COC(=O)Nc1nnc(-c2ccncc2)s1
AC50 (Trypsin): 12.5 µM (active)
AC50 (CAAX prenyl protease 2 [17]): 5.84 µM (active)
IC50 [18]: > 66 µM (inactive)
AC50 (CAAX prenyl protease 2 [19]): 9.58 µM (active)
IC50 [20]: > 66 µM (inactive)

Structure (SMILES): CCOC(=O)c1ccc(NC(=O)c2ccc(CCN3CCc4ccccc4C3)cc2)cc1
IC50 [12]: 10.6 µM (active)
IC50 (HEK293 [13]): > 20 µM (inactive)
IC50 (Tumor necrosis factor): 10.8 µM (active)

More lines, now with the values ahead:

IC50 [15]: 98.1 µM (active)
Structure (SMILES): Clc1nss/c1=N\c1nc2ccccc2[nH]1

IC50 [16]: > 32 µM (inactive)
Structure (SMILES): COC(=O)CSc1nc2ccc(NC(=O)c3ccccc3C(=O)N3CCOCC3)cc2s1

IC50 [16]: 29.1 µM (inactive)
Structure (SMILES): c1ccc(Cn2ncc3c(N4CCN(c5ccccc5)CC4)ncnc32)cc1

EC50 [21]: 0.0203 µM (active)
Structure (SMILES): CCCCN(CCCC)c1nc2ccccc2nc1NS(=O)(=O)c1ccc(NC(C)=O)cc1
